{"source": "patent US20230255988A1", "about": "(CORNELL UNIVERSITY, priority 2020, published 2023)", "key": {"[1]": {"system": "amyloid positive patients with amnestic mild cognitive impairment (aMCI) or mild dementia due to AD", "experiment": "Buschke Selective Reminding Test (SRT), 12-month trial", "assay_type": "in vivo, human", "conditions": "12 months", "from_the_text": "The trial duration per participant was twelve months. […] The Buschke Selective Reminding Test (SRT) is a standard diagnostic tool in the assessment of verbal memory. Several studies attest to its predictive value for dementia."}, "[2]": {"system": "advanced glycation end products (AGE)", "experiment": "Advanced glycation end products (AGE) level, ABCAM kit", "assay_type": "in vivo, human", "conditions": "12 months", "procedure": "Biomarker outcomes. AGE are formed during the Maillard reaction where reducing carbohydrates react with lysine side chains and N-terminal amino groups of various macromolecules, particularly proteins. AGE can adversely affect the function of these macromolecules. One of the most prevalent advanced glycation end products, N-epsilon-(carboxymethyl) lysine, has been implicated in oxidative stress and vascular damage. The quantity of AGE adduct in protein samples is determined by comparison with that of a known AGE-BSA standard curve. AGE levels were measured on plasma sample with a kit from ABCAM (AB238539), Cambridge, Mass., USA"}, "[3]": {"conditions": "in vivo", "protocol": "Measures of thiamine and its esters thiamine diphosphate (ThDP) and thiamine monophosphate (ThMP) provided blood markers of efficacy of drug delivery.\nStudy procedures. […] At the baseline visit, the cognitive tests were performed and blood drawn for measurement of thiamine, ThDP and ThMP by HPLC and APOE genotyping. Enrolled patients returned to the Burke outpatient clinic at month 3, 6, 9 and 12 for subsequent visits. At month 12, the final FDG/PET scan was performed at CUIMC.\nThe trial duration per participant was twelve months. […] At each visit, the patients returned the pill bottles for that period. The number of pills returned was used to assess compliance (the percent of pills consumed)."}, "[4]": {"system": "amyloid positive patients with amnestic mild cognitive impairment (aMCI) or mild dementia due to AD", "experiment": "Safety profile / adverse events in 12-month trial", "assay_type": "in vivo, human", "from_the_text": "(§1) The trial duration per participant was twelve months.\nPre-screening of 634 patients at the METS at the Burke Rehabilitation Hospital excluded all but 120 participants (FIG. 1). Only eighty-three of these patients were amyloid positive. Twelve declined to participate. Seventy-one of these participants agreed to be part of the trial, and were randomized to receive either placebo or benfotiamine. Eight subjects were prematurely discontinued from the trial prior to Month 12. Three participants were withdrawn due to non-compliance <80%; three withdrew consent due to unwillingness to complete study procedures; one participant was lost to follow-up and one was withdrawn by PI due to physical limitations. None of the participants randomized to the treatment group withdrew due to adverse reactions or adverse effects. […] After the trial completion and after the data were locked, one patient in the placebo group was determined to be on benfotiamine from another source and was excluded from the per-protocol analysis."}, "[5]": {"system": "amyloid positive patients with amnestic mild cognitive impairment (aMCI) or mild dementia due to AD", "experiment": "Alzheimer's Disease Cooperative Study-Activities of Daily Living (ADCS-ADL), 12-month trial", "assay_type": "in vivo, human", "conditions": "12 months", "from_the_text": "as §1\nAlzheimer's Disease Cooperative Study-Activities of Daily Living (ADCS-ADL). The ADCS-ADLSIV is a caregiver-based ADL scale composed of 19 items developed for use in dementia clinical studies (D. Galasko et al., Alzheimer Disease and Associated Disorders, 11, S33-S39, 1997). It assesses the patient's performance of both basic and instrumental activities of daily living, such as those necessary for personal care, communicating and interacting with other people, maintaining a household, conducting hobbies and interests, as well as making judgments and decisions. Higher numbered scores and answers of “yes” reflect a more self-sufficient individual. Therefore, the higher total score correlates with higher cognitive function. The total score is the sum of all items and sub-questions."}, "[6]": {"system": "brain glucose utilization", "experiment": "FDG PET imaging of glucose metabolism, regions of interest", "assay_type": "in vivo, human", "from_the_text": "Image acquisition, processing, and measurement. FDG PET imaging of glucose metabolism was acquired at baseline and after 12 months of treatment. All scans were acquired on a Siemens MCT 64 PET/CT PET-CT scanner at CUIMC. Study participants were maintained in an awake, at rest state with eyes and ears open in dim lighting during tracer uptake. Forty minutes after injection of the tracer, the emission image was acquired in four contiguous 5-minute frames. Frames were aligned with SPM 12, averaged, and then spatially normalized to the MNI template using SPM12 (https://www.fil.ion.ucl.ac.uk/spm/software/spm12/), resulting in one image per participant for each time point. Average voxel values within 90 regions of interest (ROIs) in the Automated Anatomic Labeling (AAL) Atlas were computed. […] The paracentral lobule and cerebellum were included as reference regions given their relative preservation during AD progression."}, "[7]": {"system": "amyloid positive patients with amnestic mild cognitive impairment (aMCI) or mild dementia due to AD", "experiment": "Neuropsychiatric Inventory (NPI), 12-month trial", "assay_type": "in vivo, human", "procedure": "The trial duration per participant was twelve months. […] Neuropsychiatric Inventory (NPI). The NPI assesses a wide range of behaviors encountered in dementia patients to provide a means of distinguishing frequency and severity of behavioral changes. Ten behavioral and two neuro-vegetative domains are evaluated through an interview with the caregiver."}}, "note": "“Also recorded” adds a separate entry of the source.", "data": [{"smiles": "C/C(=C(\\CCOP(=O)(O)O)SC(=O)c1ccccc1)N(C=O)Cc1cnc(C)nc1N", "note": "[benfotiamine]", "values": [{"measurement": "Buschke SRT score and change in score versus placebo", "setting": "[1]; p=0.177, change 0.315", "value": "no significant change"}, {"measurement": "Buschke SRT score course over time", "setting": "[1]; placebo showed a downward trend", "value": "stable scores"}, {"measurement": "AGE effect by APOE ε4 status", "setting": "[2]", "value": "more apparent in non-APOE ε4 patients"}, {"measurement": "effect on AGE over the course of the disease", "setting": "[2]; 13 benfotiamine patients, p=0.043", "value": "inhibited the increase in AGE"}, {"measurement": "increase in blood thiamine above baseline", "setting": "[3]; human, 12 months", "value": 161, "unit": "fold"}, {"measurement": "difference in thiamine levels by APOE-epsilon4 carrier status following treatment", "setting": "[3]", "value": "three-fold"}, {"measurement": "adverse events related to benfotiamine", "setting": "[4]; 2×300 mg benfotiamine per day, twelve months", "value": "No adverse events"}, {"measurement": "safety of administration in patients with aMCI and dementia due to AD", "setting": "[4]; overall conclusion", "value": "safe"}, {"measurement": "withdrawal due to adverse reactions or adverse effects", "setting": "[4]; participants randomized to the treatment group", "value": "None"}, {"measurement": "Allergy, number of patients (%)", "setting": "[4]; treatment n = 34, 12 months", "value": "0 (0%)"}, {"measurement": "Anxiety, number of patients (%)", "setting": "[4]; treatment n = 34, 12 months", "value": "5 (14%)"}, {"measurement": "Bruise, number of patients (%)", "setting": "[4]; treatment n = 34, 12 months", "value": "2 (6%)"}, {"measurement": "Cold symptoms, number of patients (%)", "setting": "[4]; treatment n = 34, 12 months", "value": "3 (8%)"}, {"measurement": "Depression, number of patients (%)", "setting": "[4]; treatment n = 34, 12 months", "value": "1 (3%)"}, {"measurement": "Dizziness, number of patients (%)", "setting": "[4]; treatment n = 34, 12 months", "value": "3 (8%)"}, {"measurement": "Fall, number of patients (%)", "setting": "[4]; treatment n = 34, 12 months", "value": "6 (17%)"}, {"measurement": "Gastrointestinal problem, number of patients (%)", "setting": "[4]; treatment n = 34, 12 months", "value": "9 (26%)"}, {"measurement": "Head injury, number of patients (%)", "setting": "[4]; treatment n = 34, 12 months", "value": "0 (0%)"}, {"measurement": "Heart arrhythmia, number of patients (%)", "setting": "[4]; treatment n = 34, 12 months", "value": "1 (3%)"}, {"measurement": "Pain, number of patients (%)", "setting": "[4]; treatment n = 34, 12 months", "value": "5 (14%)"}, {"measurement": "Pneumonia, number of patients (%)", "setting": "[4]; treatment n = 34, 12 months", "value": "0 (0%)"}, {"measurement": "Sprain, number of patients (%)", "setting": "[4]; treatment n = 34, 12 months", "value": "0 (0%)"}, {"measurement": "Stroke, number of patients (%)", "setting": "[4]; treatment n = 34, 12 months", "value": "2 (6%)"}, {"measurement": "Surgery, number of patients (%)", "setting": "[4]; treatment n = 34, 12 months", "value": "1 (3%)"}, {"measurement": "Total adverse events", "setting": "[4]; treatment n = 34, 12 months, placebo 59", "value": 38}, {"measurement": "ADCS-ADL score versus placebo", "setting": "[5]", "value": "no significant differences"}, {"measurement": "FDGPET Month_12 - Baseline change, Entorhinal_cortex Left", "setting": "[6]; n = 34, 2×300 mg per day", "value": "−0.02 (0.11)"}, {"measurement": "FDGPET Month_12 - Baseline change, Entorhinal_cortex Right", "setting": "[6]; n = 34, 2×300 mg per day", "value": "−0.02 (0.10)"}, {"measurement": "FDGPET Month_12 - Baseline change, Frontal cortex Left", "setting": "[6]; n = 34, 2×300 mg per day", "value": "−0.03 (0.04)"}, {"measurement": "FDGPET Month_12 - Baseline change, Frontal cortex Right", "setting": "[6]; n = 34, 2×300 mg per day", "value": "−0.03 (0.04)"}, {"measurement": "FDGPET Month_12 - Baseline change, Hippocampus Left", "setting": "[6]; n = 34, 2×300 mg per day", "value": "−0.01 (0.04)"}, {"measurement": "FDGPET Month_12 - Baseline change, Hippocampus Right", "setting": "[6]; n = 34, 2×300 mg per day", "value": "−0.02 (0.04)"}, {"measurement": "FDGPET Month_12 - Baseline change, Medial temporal Left", "setting": "[6]; n = 34, 2×300 mg per day", "value": "−0.03 (0.04)"}, {"measurement": "FDGPET Month_12 - Baseline change, Medial temporal Right", "setting": "[6]; n = 34, 2×300 mg per day", "value": "−0.03 (0.05)"}, {"measurement": "FDGPET Month_12 - Baseline change, Parietal Left", "setting": "[6]; n = 34, 2×300 mg per day", "value": "−0.02 (0.05)"}, {"measurement": "FDGPET Month_12 - Baseline change, Parietal Right", "setting": "[6]; n = 34, 2×300 mg per day", "value": "−0.02 (0.04)"}, {"measurement": "FDGPET Month_12 - Baseline change, Percuneus Left", "setting": "[6]; n = 34, 2×300 mg per day", "value": "−0.03 (0.04)"}, {"measurement": "FDGPET Month_12 - Baseline change, Percuneus Right", "setting": "[6]; n = 34, 2×300 mg per day", "value": "−0.03 (0.04)"}, {"measurement": "FDGPET Month_12 - Baseline change, Posterior cingulate Left", "setting": "[6]; n = 34, 2×300 mg per day", "value": "−0.02 (0.03)"}, {"measurement": "FDGPET Month_12 - Baseline change, Posterior cingulate Right", "setting": "[6]; n = 34, 2×300 mg per day", "value": "−0.02 (0.03)"}, {"measurement": "FDGPET Month_12 - Baseline change, Prefrontal_cortex Left", "setting": "[6]; n = 34, 2×300 mg per day", "value": "−0.02 (0.04)"}, {"measurement": "FDGPET Month_12 - Baseline change, Prefrontal_cortex Right", "setting": "[6]; n = 34, 2×300 mg per day", "value": "−0.03 (0.04)"}, {"measurement": "FDGPET Month_12 - Baseline change, Whole_brain", "setting": "[6]; n = 34, 2×300 mg per day", "value": "−0.01 (0.02)"}, {"measurement": "FDGPET in pre-specified regions of interest, benfotiamine versus placebo", "setting": "[6]; paracentral lobule and cerebellum as reference region", "value": "No significant differences"}, {"measurement": "change in NPI, whole population", "setting": "[7]; 12 months versus placebo", "value": "No differences"}, {"measurement": "NPI score in males", "setting": "[7]; males, month 9 (0.014) and month 12 (p=0.035)", "value": "significantly reduced scores; also recorded: highly significant benefit in males"}]}]}
